Reference: ChEMBL document CHEMBL1156995, “Identification of potent, highly constrained CGRP receptor antagonists” (Bioorg Med Chem Lett, 2010)
Active and inactive are the calls of the source. The calls are words filed in the database; no cut-off is given here.

Experiments:
[1] = target: T1, Calcitonin gene-related peptide type 1 receptor (Homo sapiens, UniProt O60894+Q16602); test: Displacement of […] expressed in HEK293 cells coexpressing human RAMP1; type: cell-based
[2] = target: T1, Calcitonin gene-related peptide type 1 receptor; test: Antagonist activity at human CLR expressed in human HEK293 cells coexpressing human RAMP1 assessed as Inhibition of CGRP-induced cAMP production; type: functional, cell-based
[3] = target: T1, Calcitonin gene-related peptide type 1 receptor; test: Antagonist activity at human CLR expressed in human HEK293 cells coexpressing human RAMP1 assessed as Inhibition of CGRP-induced cAMP production in the presence of 50% human serum; type: functional, cell-based
[4] = Oral bioavailability in rat at 10 mg/kg in presence of methylcellulose; type: ADME, organism-based; conditions: in vivo
[5] = Half life in rat at 2 mg/kg, iv; type: ADME, organism-based; design: dose 2 mg/kg, route intravenous; conditions: in vivo
[6] = Clearance in rat at 10 mg/kg, po or 2 mg/kg, iv; type: ADME, organism-based; conditions: in vivo
[7] = Oral bioavailability in rat at 5 mg/kg in presence of lmwitor:tween; type: ADME, organism-based; conditions: in vivo
[8] = Half life in rat at 1 mg/kg, iv; type: ADME, organism-based; design: dose 1 mg/kg, route intravenous; conditions: in vivo
[9] = Clearance in rat at 5 mg/kg, po or 1 mg/kg, iv; type: ADME, organism-based; conditions: in vivo
[10] = Oral bioavailability in rat at 10 mg/kg in presence of lmwitor:tween; type: ADME, organism-based; conditions: in vivo
[11] = Clearance in rhesus monkey at 2 mg/kg, po and 0.5 mg/kg, iv; type: ADME, organism-based, Macaca mulatta; conditions: in vivo
[12] = Oral bioavailability in dog at 1 mg/kg in presence of methylcellulose; type: ADME, organism-based, Canis lupus familiaris; conditions: in vivo
[13] = Oral bioavailability in rhesus monkey at 2 mg/kg in presence of methylcellulose; type: ADME, organism-based, Macaca mulatta; conditions: in vivo
[14] = Half life in rat at 2mg/kg, iv; type: ADME, organism-based; conditions: in vivo
[15] = Half life in dog at 0.5 mg/kg, iv; type: ADME, organism-based, Canis lupus familiaris; design: dose 0.5 mg/kg, route intravenous; conditions: in vivo
[16] = Half life in rhesus monkey at 0.5 mg/kg, iv; type: ADME, organism-based, Macaca mulatta; design: dose 0.5 mg/kg, route intravenous; conditions: in vivo
[17] = Clearance in rat at 10 mg/kg, po and 2 mg/kg, iv; type: ADME, organism-based; conditions: in vivo
[18] = Clearance in dog at 1 mg/kg, po and 0.5 mg/kg, iv; type: ADME, organism-based, Canis lupus familiaris; conditions: in vivo
[19] = test system: Rhesus monkey; test: Inhibition of capsaicin-induced vasodilation in orally dosed rhesus monkey at 5.5 uM plasma level; type: functional, organism-based; conditions: Macaca mulatta
[20] = test system: Rhesus monkey; test: Inhibition of capsaicin-induced vasodilation in orally dosed rhesus monkey; type: functional, organism-based; conditions: Macaca mulatta
[21] = Oral bioavailability in rat at 5 mg/kg in presence of PEG400:water; type: ADME, organism-based; conditions: in vivo

T1 sequence (Q16602 whole entry, one chain of several): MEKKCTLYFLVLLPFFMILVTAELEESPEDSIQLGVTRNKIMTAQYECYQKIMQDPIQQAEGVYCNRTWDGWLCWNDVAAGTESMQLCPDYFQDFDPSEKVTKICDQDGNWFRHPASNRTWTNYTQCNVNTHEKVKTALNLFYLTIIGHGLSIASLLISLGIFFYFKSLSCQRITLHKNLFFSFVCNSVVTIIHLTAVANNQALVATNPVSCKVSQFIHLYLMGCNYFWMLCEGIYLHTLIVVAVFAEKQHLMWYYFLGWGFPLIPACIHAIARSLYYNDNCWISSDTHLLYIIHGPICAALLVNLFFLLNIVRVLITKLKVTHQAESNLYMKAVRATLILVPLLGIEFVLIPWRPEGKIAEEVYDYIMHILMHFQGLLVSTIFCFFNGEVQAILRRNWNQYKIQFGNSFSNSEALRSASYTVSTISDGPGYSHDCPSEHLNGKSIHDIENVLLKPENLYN

Row | Structure (SMILES) | Ki [1] [nM] | IC50 [2] [nM] | IC50 [3] [nM] | half-life [5] [min] | clearance [6] [mL/min/kg] | other results
1 | CN1C(=O)NC(=O)[C@@]12Cc1cc3ccc(CN4C(=O)CCc5ccccc54)nc3cc1C2 | 8.9 | 50 | 850 | 42 | 38 | bioavailability [4]: 10%
2 | O=C1CC2CN(Cc3ccc4cc5c(cc4n3)C[C@@]3(C5)C(=O)Nc4ncccc43)c3cccc(c32)N1 (some centres undefined) | 0.55 | 0.86 | 4.1 |  |  | bioavailability [7]: 8%; half-life [8]: 19.2 min; clearance [9]: 19 mL/min/kg
3 | CN1C(=O)NC(=O)[C@@]12Cc1cc3ccc(CN4CC5CC(=O)Nc6cccc4c65)nc3cc1C2 (some centres undefined) | 1.5 | 7.3 | 43 | 66 | 11 | bioavailability [10]: 41%
4 | CC12CC(=O)Nc3cccc(c31)N(Cc1ccc3cc4c(cc3n1)C[C@@]1(C4)C(=O)Nc3ncccc31)C2 (some centres undefined) | 0.12 | 0.52 | 1.3 | 37.2 | 28 | bioavailability [10]: 6%
5 | O=C1CCc2ccccc2N1Cc1ccc2cc3c(cc2n1)C[C@@]1(C3)C(=O)Nc2ncccc21 | 1.4 | 4.7 | 81 | 21 | 56 | bioavailability [4]: 3%
6 | CCC12CC(=O)Nc3cccc(c31)N(Cc1ccc3cc4c(cc3n1)C[C@@]1(C4)C(=O)NC(=O)N1C)C2 (some centres undefined) | 1.3 | 7.2 | 44 | 66 | 44 | bioavailability [4]: 65%
7 | CN1C(=O)NC(=O)[C@@]12Cc1cc3ccc(Cn4c(=O)n5c6c(cccc64)NC(=O)C5)nc3cc1C2 | 0.3 | 1.7 | 14 |  |  | 
8 | CN1C(=O)NC(=O)[C@]12Cc1cc3ccc(Cn4c(=O)n(-c5ccccn5)c5ccccc54)nc3cc1C2 | 17 |  |  |  |  | 
9 | CN1C(=O)NC(=O)C12Cc1cc3ncc(Cn4c(=O)n(-c5ccccn5)c5ccccc54)nc3cc1C2 (centres undefined) | 185 |  |  |  |  | 
10 | CCC12CC(=O)Nc3cccc(c31)N(Cc1ccc3cc4c(cc3n1)C[C@@]1(C4)C(=O)Nc3ncccc31)C2 (some centres undefined) | 0.072 | 0.68 | 1.5 | 36.6 | 11 | bioavailability [10]: 9%
11 | CN1C(=O)NC(=O)[C@@]12Cc1cc3ccc(CN4CC5(C)CC(=O)Nc6cccc4c65)nc3cc1C2 (some centres undefined) | 0.52 | 2.2 | 6.5 | 96 | 14 | clearance [11]: 5.6 mL/min/kg; bioavailability [4]: 45%; bioavailability [10]: 34%; bioavailability [12]: 59%; bioavailability [13]: 38%; half-life [14]: 96 min; half-life [15]: 366 min; half-life [16]: 102 min; clearance [17]: 14 mL/min/kg; clearance [18]: 1.6 mL/min/kg; inhibition [19]: Active; EC90 [20]: 5500 nM
12 | CN1C(=O)NC(=O)[C@@]12Cc1cc3nc(Cn4c(=O)n(-c5ccccn5)c5ccccc54)oc3cc1C2 | 6000 |  |  |  |  | 
13 | CN1C(=O)NC(=O)[C@]12Cc1ccc(NC(=O)Cn3c(=O)n(-c4ccccn4)c4ccccc43)c(F)c1C2 | 55 |  |  |  |  | 
14 | CN1C(=O)Cn2c(=O)n(Cc3ccc4cc5c(cc4n3)C[C@@]3(C5)C(=O)NC(=O)N3C)c3cccc1c32 | 3 | 33 | 1200 |  |  | 
15 | O=C1Cn2c(=O)n(Cc3ccc4cc5c(cc4n3)C[C@@]3(C5)C(=O)Nc4ncccc43)c3cccc(c32)N1 | 0.023 | 0.077 | 2.5 |  |  | bioavailability [21]: 0%; half-life [8]: 27 min; clearance [9]: 40 mL/min/kg
16 | CN1C(=O)Cn2c(=O)n(Cc3ccc4cc5c(cc4n3)C[C@@]3(C5)C(=O)Nc4ncccc43)c3cccc1c32 | 0.41 | 1.2 | 95 |  |  | 
17 | CN1C(=O)NC(=O)[C@]12Cc1cc(F)c(NC(=O)Cn3c(=O)n(-c4ccccn4)c4ccccc43)cc1C2 | 720 |  |  |  |  | 
